Patent US5891622A, “Assessment of oxidative stress in vivo” (Oxford Biomedical Research, Inc., priority 1998, dated 1999)

Columns and labels:
[1] = test system: anti-8EPGF2 IgG; test: specificity / cross-reactivity of anti-8EPGF2 IgG (competitive ELISA); assay type: binding, goat; details: for cross-reaction with anti-8EPGF2 IgG (in words) / cross-reaction with anti-8EPGF2 IgG: 8EPGF2 ELISA
Procedure: The IgG bound to the protein G column was eluted with 50 mM glycine-HCl buffer, pH 2.5, and immediately neutralized with 0.5M Tris-HCl, pH 7.6.
High-binding strip well microplates (Labsystems, Inc., Marlboro, Ma.) were coated with protein G-purified IgG suspended in 1M carbonate, pH 9.0, (1 μg/well; 200 μL/well final volume) and then covered with parafilm. After overnight incubation at room temperature, the wells were gently washed five times with tris buffered saline (TBS), pH 7.5, containing 0.1% tween. Non-specific sites were blocked by the addition of 0.2 mL of 5% (w/v) nonfat dry milk in TBS. After 2 hours of incubation at room temperature, the plates were washed three times with TBS-tween. […] Following incubation for 1 hour to permit competitive binding to bound antibody, unbound material was removed by thoroughly washing the wells with TBS-tween and 150 μL of a calorimetric substrate for HRP [3,3',5,5'tetramethylbenzidine (TMB) with hydrogen peroxide] (ELISA Technologies) was added. After incubation of the plate for 20 minutes, the reaction is stopped by addition of 75 μL of 1N H2 SO4, and the absorbance at 450 nm determined using a microtiter plate reader. Under these assay conditions, the amount of color in a well is inversely proportional to the initial concentration of the sample or standard ligand.

[2] = test system: anti-8EPGF2 IgG; test: immunoaffinity column retention of 8EPGF2 on anti-8EPGF2 IgG resin; assay type: binding, goat; details: up to 10 ng 8EPGF2 applied
Procedure: Reacti-gel was obtained from Pierce Co. and anti-8EPGF2 immunoaffinity column was prepared according to the manufacturer's instruction. […] In each experiment samples were diluted to concentrations lower than the capacity of the column (~0.5 ng/100 μL) prior to application to the column.
Urine samples were applied to immunoaffinity columns, which were then eluted with acetonitrile:water (1:3), followed by acetone:water (90:10). The eluates were then processed and analyzed using the standard GC/MS protocol as described herein above. […] PGF2α has a slightly longer retention time than the [^2 H4 ]-PGF2α (the internal control) shown in the bottom chromatograms of FIG. 4A and 4B, because protium runs faster than deuterium on GC [Wendelborn et al, 1990]. The six peaks with m/z=569 are numbered by the order of elution and the elution time of each peak was divided by the elution time of internal standard, [^2 H4 ]-PGF2α, obtained at m/z=573 to calculate relative elution time of each peak. […] The identity of Peak I, II, III, and VI is not known.

[3] = test system: vasoconstriction; details: cited from earlier work
[4] = aqueous solution, non-enzymatic rearrangement to PGD2 and PGE2; cited from earlier work

Row | SMILES | cross-reaction with anti-8EPGF2 IgG (in words) [1] | also measured
1 | CCCCC[C@H](O)/C=C/[C@@H]1[C@@H](CC(=O)CCCCC(=O)O)[C@@H](O)C[C@H]1O [6-keto-PGF1α] | did not cross-react | 
2 | CCCCC[C@H](O)/C=C/[C@@H]1[C@H](CCCCCCC(=O)O)[C@@H](O)C[C@H]1O [8-epi-PGF1α, 5,6-dihydro-8-iso-PGF2α] | did not cross-react | 
3 | CCCCC[C@H](O)/C=C/[C@@H]1[C@H](CCCCCCC(=O)O)[C@H](O)C[C@H]1O [8-epi-PGF1β] | did not cross-react | 
4 | CCCCC[C@H](O)/C=C/[C@@H]1[C@H](C/C=C\CCCC(=O)O)[C@@H](O)C[C@H]1O [8EPGF2, 8-epi-prostaglandin F2α] |  | recognition by anti-8EPGF2 antibody (in words) ([1]; polyclonal antibody, ELISA): recognized; applied 8EPGF2 bound to antibody cross-linked to resin [2]: higher than 98%; unbound 8EPGF2 ([2]; 100 μl resin): lower than 2%; vasoconstrictor property (in words) [3]: vasoconstrictor property; effect of high serum concentration on renal arteries (in words) ([3]; hepatorenal syndrome patients): intense vasoconstriction of renal arteries
5 | CCCCC[C@H](O)/C=C/[C@@H]1[C@@H](C/C=C\CCCC(=O)O)[C@@H](O)C[C@@H]1O [9α-11β-PGF2] |  | cross-reaction with anti-8EPGF2 IgG [1]: 4.1%
6 | CCCCC[C@H](O)/C=C/[C@@H]1[C@@H](C/C=C\CCCC(=O)O)[C@H](O)C[C@H]1O [9β-11α-PGF2α] | did not cross-react | 
7 | CCCCC[C@H](O)/C=C/[C@@H]1[C@@H](CCCCCCC(=O)O)[C@H](O)C[C@@H]1O [11β-PGF1β] | did not cross-react | 
8 | CCCCC[C@H](O)CC[C@@H]1[C@@H](CCCCCCC(=O)O)[C@@H](O)C[C@H]1O [13,14-dihydro-PGF1α] | did not cross-react | 
9 | CCCCCC(=O)CC[C@@H]1[C@@H](CCCCCCC(=O)O)[C@@H](O)C[C@H]1O [13-14-dihydro-15-keto-PGF1α] | did not cross-react | 
10 | CCCCCC(=O)CC[C@@H]1[C@@H](C/C=C\CCCC(=O)O)[C@@H](O)C[C@H]1O [13-14-dihydro-15-keto-PGF2α] |  | cross-reaction with anti-8EPGF2 IgG [1]: 3%
11 | CCCCC[C@H](O)/C=C/[C@H]1C(=O)C[C@H](O)[C@@H]1C/C=C\CCCC(=O)O [PGD2] | did not cross-react | 
12 | CCCCC[C@H](O)/C=C/[C@@H]1[C@@H](CCCCCCC(=O)O)[C@H](O)C[C@H]1O [PGF1β] | did not cross-react | 
13 | CCCCC[C@H](O)/C=C/[C@@H]1[C@@H](C/C=C\CCCC(=O)O)[C@@H](O)C[C@H]1O [PGF2α] | did not cross-react | 
14 | CCCCC/C=C\C/C=C\C/C=C\C/C=C\CCCC(=O)O [arachidonic acid] | did not cross-react | 
15 | CCCCC[C@H](O)/C=C/[C@H]1[C@H](O)CC(=O)[C@@H]1C/C=C\CCCC(=O)O [prostaglandin E2] | did not cross-react | 
16 | CCCCC[C@@H](/C=C/[C@@H]1[C@@H](C/C=C\CCCC(=O)O)[C@@H]2C[C@H]1OO2)OO [prostaglandin G2] |  | t1/2 [4]: ~ 5 minutes
17 | CCCCC[C@H](O)/C=C/[C@@H]1[C@@H](C/C=C\CCCC(=O)O)[C@@H]2C[C@H]1OO2 [prostaglandin H2] |  | t1/2 [4]: ~ 5 minutes
